Reference: US20240189442A1, “TARGETING CONJUGATES WITH THERAPEUTIC AGENTS AND OLIGONUCLEOTIDES AND USES THEREOF” (Allygen Group, priority 2021, published 2024)
Non-standard residues stand in square brackets, D forms with d. Primed or numbered codes have the meaning given here. No end group written: not given here. PEG12′ = NH2-(PEG)12 moiety

How the values were obtained:
[1] = target: T1, TLR9 (HEK-Blue hTLR9-hPDL1 cells) (Homo sapiens, UniProt Q9NR96); test: In vitro TLR9 activation study, SEAP reporter; assay type: cell-based; conditions: 18 hr incubation, OD 655 nm; read-out: HEK-Blue hTLR9-hPDL1 cell EC50
T1 construct: expressed in transfected cells; host or cells: HEK-Blue hTLR9-hPDL1 (HEK-Blue hTLR9 cells carrying lentiviral human PD-L1, NM_014143)
T1 sequence (Q9NR96 26-1032): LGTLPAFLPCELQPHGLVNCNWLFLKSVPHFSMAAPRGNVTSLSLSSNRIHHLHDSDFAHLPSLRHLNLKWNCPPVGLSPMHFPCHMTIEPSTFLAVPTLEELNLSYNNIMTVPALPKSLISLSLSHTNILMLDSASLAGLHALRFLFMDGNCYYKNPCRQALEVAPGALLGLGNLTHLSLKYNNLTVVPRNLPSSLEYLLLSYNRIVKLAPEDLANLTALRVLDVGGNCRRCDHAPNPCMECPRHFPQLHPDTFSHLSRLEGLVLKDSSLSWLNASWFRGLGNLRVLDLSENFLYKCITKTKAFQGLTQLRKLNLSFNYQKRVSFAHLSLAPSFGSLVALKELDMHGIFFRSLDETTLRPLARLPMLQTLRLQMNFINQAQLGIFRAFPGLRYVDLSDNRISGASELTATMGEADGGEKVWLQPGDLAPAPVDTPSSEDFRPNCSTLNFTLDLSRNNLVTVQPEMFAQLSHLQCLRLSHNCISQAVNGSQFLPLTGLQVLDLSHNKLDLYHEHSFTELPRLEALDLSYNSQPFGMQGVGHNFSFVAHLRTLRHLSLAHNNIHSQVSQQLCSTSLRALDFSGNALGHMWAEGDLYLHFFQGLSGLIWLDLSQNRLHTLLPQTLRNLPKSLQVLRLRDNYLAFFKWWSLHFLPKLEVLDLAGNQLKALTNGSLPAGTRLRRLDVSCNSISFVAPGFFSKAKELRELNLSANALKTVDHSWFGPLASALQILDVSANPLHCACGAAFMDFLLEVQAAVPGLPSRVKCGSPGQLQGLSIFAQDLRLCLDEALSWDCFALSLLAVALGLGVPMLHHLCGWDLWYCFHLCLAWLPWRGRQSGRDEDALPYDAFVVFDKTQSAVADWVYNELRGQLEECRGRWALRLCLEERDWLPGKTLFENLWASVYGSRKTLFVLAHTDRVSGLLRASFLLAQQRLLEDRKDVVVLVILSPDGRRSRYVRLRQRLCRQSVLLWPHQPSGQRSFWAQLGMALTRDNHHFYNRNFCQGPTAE
From the text: Data were normalized with untreated cells as zero.

CathepsinB = CathepsinB (Homo sapiens, UniProt P07858); test: Digestion of the drug-linkers by CathepsinB; assay type: biochemical; conditions: 125 nM enzyme, 62.5 μM drug-linker, pH 5.5, 37° C., 3 hours
Experimental: To simulate the release of drug under physiological conditions, the drug-linkers were subjected to cleavage by CathepsinB, after which an elimination reaction occurred and unmodified drug was released.
Lyophilized CathepsinB enzyme powder was dissolved in 130 μL of pure water, and divided into 13 tubes of 10 μL each. At this time, the concentration of each tube was 0.15 mg/ml (4.15 μM). Activation buffer (20 mM sodium acetate, 30 mM DTT, 15 mM EDTA, pH 5.5) was then added to a tube of enzyme to activate the enzyme for 1 hour at room temperature. The activated enzyme was diluted to 125 nM with enzyme digestion buffer (25 mM sodium acetate, 1 mM EDTA, pH 5.5). Drug-linkers were added to the activated enzyme to a final concentration of 62.5 μM, and incubated at 37° C. for 3 hours.

[2] = Stability of Compound of Formula (1) and (2) in buffer; assay type: physicochemical
Experimental: Preparation of 20 mM phosphate buffer with pH=7.4 (in 1 L): 8.0 g sodium chloride, 0.2 g potassium chloride, 7.3 g disodium hydrogen phosphate dodecahydrate, and 0.48 g potassium dihydrogen phosphate was dissolved in water and dilute to 1 L at pH 7.4.
The buffer was adjusted to pH 9.0, 7.0 and 5.0 with saturated phosphoric acid solution and sodium hydroxide solution. […] The solution pH was adjusted back to 5, and shaken overnight at room temperature (16 h) before testing.

[3] = Stability of Compound of Formula (1) and (2) in plasma; assay type: in vitro ADME; conditions: pH 7.4, 0.5 mg/mL
Experimental: Preparation of protein precipitation solution: 1 g NaCl was added to 3 mL methanol and 5 mL acetonitrile, stirred for 1 h, and then allowed to stand at room temperature for 1 h before use.
200 μL protein precipitation solution was then added to the reaction solution and centrifuged at 8000 g for 10 min. The supernatant was collected for analysis.

HCT15-hPDL1 cells = test: In vitro cytotoxicity study, CellTiter-Glo Luminescent Cell Viability Assay; assay type: cell-based, Human; conditions: 5 days exposure
Experimental: The cell line was named as HCT15-hPDL1. Cells were cultured at 37° C. with 5% C02 using RPMI1640 medium supplemented with 10% FBS, plus 1 μg/ml of puromycin.
The in vitro anti-tumor activity was determined by CellTiter-Glo® Luminescent Cell Viability Assay (Promega) according to the manufacturer's instructions. Briefly, cells were seeded into 96-well plates at 2×10^3 cells per well in 100 μL complete medium, then incubated at 37° C. with 5% CO2 overnight. Untreated cells served as control. ADCs, antibodies, or payloads in 100 μL medium were added in duplicate at various concentrations with a 2-fold dilution series starting with concentrations of 1 uM, respectively. Cells were exposed to test articles for 5 days. […]. The cell survival rate (%) was calculated using the following formula: sample/control×100%.

[4] = target: Urokinase-type Plasminogen Activator (uPA) (Homo sapiens, UniProt P00749); test: uPA cleavage of substrate peptides measured by FRET; assay type: biochemical; conditions: uPA 7.5 × 10^−3 mg/mL, peptide 0.5 mg/mL, PBS pH=7.4
Experimental: (§1) All peptide solutions were finally diluted to 50 μL with 20 mM PBS at pH=7.4.

[5] = target: Tissue-type Plasminogen Activator (tPA) (Homo sapiens, UniProt P00750); test: tPA digestion of substrate peptides measured by FRET; assay type: biochemical
Sequence of Tissue-type Plasminogen Activator (tPA) (P00750 36-562, species assumed): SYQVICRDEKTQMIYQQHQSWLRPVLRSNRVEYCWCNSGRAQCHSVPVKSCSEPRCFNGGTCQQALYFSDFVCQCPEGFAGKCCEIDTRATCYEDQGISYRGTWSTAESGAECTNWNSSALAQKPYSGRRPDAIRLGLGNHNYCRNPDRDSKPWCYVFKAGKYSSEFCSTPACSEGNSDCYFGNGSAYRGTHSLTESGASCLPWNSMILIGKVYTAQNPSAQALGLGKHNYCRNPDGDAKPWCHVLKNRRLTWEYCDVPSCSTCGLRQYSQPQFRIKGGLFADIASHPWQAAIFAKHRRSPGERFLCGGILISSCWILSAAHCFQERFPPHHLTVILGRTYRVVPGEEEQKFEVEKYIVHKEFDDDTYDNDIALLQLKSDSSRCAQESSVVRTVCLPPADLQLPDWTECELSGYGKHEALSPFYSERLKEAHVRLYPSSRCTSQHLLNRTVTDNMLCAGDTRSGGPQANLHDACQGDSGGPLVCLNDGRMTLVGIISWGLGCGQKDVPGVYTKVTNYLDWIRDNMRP
Experimental: as §1

[6] = Stability of SN-38 (lactone / ring-opened form) at different pH; assay type: physicochemical
Experimental: A hydrochloric acid solution with a pH of 4 and a sodium hydroxide solution with a pH of 10 were prepared respectively. 5 mg of SN-38 was dissolved in 5 mL of acetonitrile. The stability of SN-38 in a solution of changing pH (pH=10 to pH=4) was measured by shaking SN-38 at room temperature under pH=10 for 10 min, then adjusting the pH back to 4 and shake at room temperature for 10 min before sampling. SN-38 was then incubated at room temperature overnight (16 h) on a shaker and assayed afterwards.

antibody Ab2B = test: Biacore affinities between TBP and antibody; assay type: binding
Sequence of antibody Ab2B (as listed by the source): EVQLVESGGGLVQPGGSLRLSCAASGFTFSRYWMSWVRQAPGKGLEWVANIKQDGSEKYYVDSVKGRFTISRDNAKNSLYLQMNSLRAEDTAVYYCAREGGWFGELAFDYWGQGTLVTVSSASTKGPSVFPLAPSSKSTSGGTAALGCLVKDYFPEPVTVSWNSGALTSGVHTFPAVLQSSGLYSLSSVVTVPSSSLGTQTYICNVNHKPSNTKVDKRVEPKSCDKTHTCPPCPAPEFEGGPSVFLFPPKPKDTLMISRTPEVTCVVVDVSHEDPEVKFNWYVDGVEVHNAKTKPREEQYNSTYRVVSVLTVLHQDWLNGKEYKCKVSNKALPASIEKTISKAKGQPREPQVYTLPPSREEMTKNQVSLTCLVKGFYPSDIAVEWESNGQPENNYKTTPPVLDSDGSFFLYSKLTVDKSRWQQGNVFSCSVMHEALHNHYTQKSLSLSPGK
Sequence of antibody Ab2B (as listed by the source partner): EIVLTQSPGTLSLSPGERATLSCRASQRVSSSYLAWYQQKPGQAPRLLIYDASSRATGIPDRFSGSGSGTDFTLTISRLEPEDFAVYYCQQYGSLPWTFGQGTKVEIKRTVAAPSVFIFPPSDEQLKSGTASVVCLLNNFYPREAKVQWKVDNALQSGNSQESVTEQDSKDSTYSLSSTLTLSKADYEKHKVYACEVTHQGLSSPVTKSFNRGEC
Experimental: Anti-human Fab was ligated to Biacore chips at pH 4.5. […] TBPs were flowed through the chip as analytes at 30 μL/min. 10 mM glycine at pH 1.5 was used for regeneration of the chip. Conditions were optimized as needed.

[7] = alkaline conditions for 10 minutes, then acidic conditions before testing
[8] = pH 10 to pH 4, after incubation overnight (16 h)

CpGB: CpG ODN CpGB, used as positive control and as component of Ab3A ADOC (DNA TCGAACGTTCGAACGTTCGAACGTTCGAAT; DNA, all phosphorothioate, methylation of C not given here)
EC50 [1]: 11500 nM

CCc1c2c(nc3ccc(O)cc13)-c1cc3c(c(=O)n1C2)COC(=O)[C@@]3(CC)OC(=O)N(C)CCN(C)C(=O)OCc1ccc(NC(=O)[C@H](CCCNC(N)=O)NC(=O)[C@@H](NC(=O)CCOCCOCCOCCOCCOCCOCCOCCOCCCNC(=O)CNC(=O)CNC(=O)CN)C(C)C)cc1 [Compound of Formula (2), Glycine3-amido-PEG8-VC-PAB-DMAE-α-hydroxy lactone linked SN38]
CathepsinB digestion (in words) (CathepsinB): effectively digested | Product released on CathepsinB digestion (CathepsinB): release SN38 derivatives | Present in the form of lactones in buffer ([2]; buffer, less affected by pH): 98% | Stability in plasma (in words) [3]: mainly in the form of lactones in the plasma | IC50 (HCT15-hPDL1 cells; Homo sapiens, 120 h): 38.1 nM

Glycine3-amido-PEG8-VC-PAB-DMAE-phenol linked SN38 [Compound of Formula (1)]
CathepsinB digestion (in words) (CathepsinB): effectively digested | Product released on CathepsinB digestion (CathepsinB): release SN38 | Present in the form of lactones ([2]; acidic conditions (pH 5 buffer)): 88% | Present as lactones in the form of ring opening ([2]; alkaline conditions (pH 9 buffer)): 92% | Present in the form of lactones ([2]; alkaline conditions for 10 minutes, then acidic conditions (pH 9 to 5)): 98% | Stability in plasma (in words) [3]: partially hydrolyzed in plasma | IC50 (HCT15-hPDL1 cells): > 300 nM

GSGRNAQV [SEQ ID NO: 54, uPA substrate peptide]
Fluorescence Intensity Time to Reach Plateau [4]: 1.4 h | tPA digestion (in words) ([5]; tPA […]10^−2 mg/mL): digested

LSGRSDNH [SEQ ID NO: 50]
Fluorescence Intensity Time to Reach Plateau [4]: 1.7 h

LGGSGRSANAILE [SEQ ID NO: 52, uPA substrate peptide]
Fluorescence Intensity Time to Reach Plateau [4]: 1.4 h | tPA digestion (in words) ([5]; tPA 7.5×10^−3 mg/mL): mildly digested | tPA digestion (in words) ([5]; tPA […]10^−2 mg/mL): digested

CCc1c2c(nc3ccc(O)cc13)-c1cc3c(c(=O)n1C2)COC(=O)[C@]3(O)CC [SN38, 7-ethyl-10-hydroxy-20(S)-camptothecin]
Present as lactone ([6]; acidic conditions (pH 4)): 94% | Present as lactone ring-opened form ([6]; alkaline conditions (pH 10)): 92% | Lactone ring-opening products [6, 7]: 42% | Present in the form of lactone [6, 7]: 56% | Lactone ring-opening products [6, 8]: 13% | Present in the form of lactone [6, 8]: 86% | IC50 (HCT15-hPDL1 cells; Homo sapiens, 120 h): 11.2 nM

LGGSGRNAQVRLE [SEQ ID NO: 53, uPA substrate peptide]
Fluorescence Intensity Time to Reach Plateau [4]: 1.6 h

SGRSA [SEQ ID NO: 51]
Fluorescence Intensity Time to Reach Plateau [4]: 1.8 h | tPA digestion (in words) ([5]; tPA 7.5×10^−3 mg/mL): mildly digested | tPA digestion (in words) ([5]; tPA […]10^−2 mg/mL): digested

SEQ ID NO: 151 ([PEG12′]RSQSRSRYYRQRQRSRRRRRRS)
Binding to Ab2B (in words) (antibody Ab2B): did not bind to Ab2B
